Measured values published in EP4700025A1, “AMIDE COMPOUND, PHARMACEUTICAL COMPOSITION COMPRISING SAME, AND USE THEREOF” (Suzhou Genhouse Bio Co., Ltd., priority 2023, dated 2024).
Where two headings read alike, the source gives them in different places.

Columns and labels:
HCT-116-MTAP^-/- cells = experiment: Pharmacodynamic study, HCT-116-MTAP^-/- subcutaneous xenograft; assay type: in vivo, mouse; details: HCT-116-MTAP^-/- xenograft
Method: Human colon cancer HCT-116-MTAP^-1- cells were cultured in monolayer in vitro using the McCoy 5A culture medium (HyClone) containing 10% fetal bovine serum (BI) and 1% penicillin and streptomycin (Beyotime) in an incubator at 37 °C with 5% CO2. The cells were digested with trypsin 2 to 3 times weekly for passaging. When the saturation degree of the cells was 80% to 90%, the cells were collected, counted, and inoculated. 5 × 10^6 (0.1 mL) HCT-116-MTAP^-/- cells were subcutaneously inoculated on the right back of each mouse. On about day 15 after inoculation of the cells, the mean tumor volume reached 172 mm^3. The mice were randomly grouped for administration (the animals were divided into an administration group and a control group, with 6 animals in each group). The day of grouping was designated as d0, and intragastric administration was started on d1. The administration was performed once daily at an administration volume of 10 mL/kg. Vehicle control was administered to the control group. The tumor volume was measured 2 to 3 times weekly, and meanwhile, the mice were weighed and the data were recorded; daily observations were made to record the body surface signs of the mice. After the experiment was completed, the tumors were collected, weighed, and photographed for recording.
Calculation formula for tumor volume: Tumor volume (mm^3) = 1/2 × (a×b^2) [formula] (note: a represents long diameter and b represents short diameter) [formula]

CYP450 1A2 = target: T1, CYP450 1A2 (Homo sapiens, UniProt P05177); experiment: Inhibition of human liver microsome CYP450 enzyme 1A2; assay type: in vitro ADME
T1 construct: from tissue; host or cells: human liver microsomes
T1 sequence (P05177 1-516): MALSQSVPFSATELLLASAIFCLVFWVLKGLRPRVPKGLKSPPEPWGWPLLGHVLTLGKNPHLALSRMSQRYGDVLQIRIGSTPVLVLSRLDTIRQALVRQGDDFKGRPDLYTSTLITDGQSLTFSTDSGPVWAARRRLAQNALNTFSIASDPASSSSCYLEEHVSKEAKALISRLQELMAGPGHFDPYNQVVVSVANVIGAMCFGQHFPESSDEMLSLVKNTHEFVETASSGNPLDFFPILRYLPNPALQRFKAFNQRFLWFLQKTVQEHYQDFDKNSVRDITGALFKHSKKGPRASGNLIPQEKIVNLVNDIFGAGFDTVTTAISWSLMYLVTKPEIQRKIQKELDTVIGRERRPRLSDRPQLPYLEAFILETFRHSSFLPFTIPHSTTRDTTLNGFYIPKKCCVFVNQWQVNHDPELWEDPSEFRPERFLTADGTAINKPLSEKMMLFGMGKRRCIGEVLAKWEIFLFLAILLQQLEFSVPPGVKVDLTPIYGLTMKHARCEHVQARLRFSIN
Method: (§1) 100 mM K-Buffer: 9.5 mL of stock solution A was mixed with 40.5 mL of stock solution B, the total volume was adjusted to 500 mL with ultrapure water, and the buffer was titrated to pH 7.4 with KOH or H3PO4. • Starting material A (1 M potassium dihydrogen phosphate): 136.5 g of potassium dihydrogen phosphate in 1 L of water; • Stock solution B ([…]): 174.2 g of potassium dihydrogen phosphate in 1 L of water.
(§2) The test substance powder was prepared into a stock solution at a certain concentration with DMSO or another organic solvent, which was then further diluted with a suitable organic solvent.
(§3) The liver microsomal in vitro incubation system for the CYP450 enzyme metabolism phenotype study was a biochemical reaction of the prepared liver microsomes supplemented with a redox coenzyme and an enzyme-specific selective inhibitor under simulated physiological temperature and physiological environment conditions.
(§4) The concentration of the parent drug or a metabolite thereof in the incubation solution was determined by LC-MS/MS. and the IC50 value was calculated.

HCT-116 = experiment: CCK8 proliferation inhibition, HCT-116; assay type: cell-based; details: Homo sapiens, 192 h, CCK8, 8 days after drug treatment
HCT-116-MTAP^-/- = experiment: CCK8 proliferation inhibition, HCT-116-MTAP^-/-; assay type: cell-based; details: Homo sapiens, 192 h; HCT-116-MTAP^-/- (MTAP-deficient); CCK8, 8 days after drug treatment
CYP450 2C19 = target: T2, CYP450 2C19 (Homo sapiens, UniProt P33261); experiment: Inhibition of human liver microsome CYP450 enzyme 2C19; assay type: in vitro ADME
T2 construct: from tissue; host or cells: human liver microsomes
Method: as §1, §2, §3, §4

PRMT5 = PRMT5 (Homo sapiens, UniProt O14744); experiment: Inhibitory activity against enzymatic activity of PRMT5 (fluorescence polarization); assay type: biochemical; details: PRMT5 25 nM, SAM 1 µM, polypeptide 1 µM, MTA 2 µM; 37 °C 2 hours
Method: The compounds were prepared into 10 mM stock solutions using DMSO, and then 9 concentration gradients (with an initial concentration of 10 µM followed by 1:5 dilution) were prepared using a buffer (50 mM Tris-HCl pH 8.5, 5 mM MgCl2, 4 mM DTT, 0.01% Triton X-100, 0.1 M NaCl, 0.5% DMSO), and each well received 5 µL of the diluted compound solutions. SAM, a polypeptide, and MTA were prepared using a buffer to final concentrations of 1 µM, 1 µM, and 2 µM, respectively, and were added to each well in a total of 5 µL. Meanwhile, an MTA-free group was set as a control. […] Subsequently, a mixture of 2.5 µL of stop buffer A, 2.5 µL of an 8× MT assay mixture (final concentration: 1×), and 24 µg/mL AMP2/GMP2 antibodies (final concentration: 3 µg/mL) was added. The resulting mixture was incubated at room temperature for 1.5 hours, and fluorescence polarization (FP) was measured (Ex 633, Em 647). Meanwhile, negative control wells without protein (Blank) and positive control wells without compound (DMSO) were set. Each experiment was independently repeated three times.
Data processing: The numerical values of each group were recorded for statistical analysis, and the inhibition rate was calculated according to the following formula: inhibition percentage of compound wells (% inh) = [1 - (ave Blank - Cpd well)/(ave Blank - ave DMSO control)] × 100. Note: ave represents the average value, and Cpd represents the numerical value of the wells containing the compound. A sigmoidal dose-inhibition rate curve was plotted and fitted using a nonlinear regression model in the GraphPad Prism 7.0 software, and the IC50 value was calculated. Table 1. Inhibitory activity of compounds against enzymatic activity of PRMT5

Sequence of PRMT5 (O14744 whole entry): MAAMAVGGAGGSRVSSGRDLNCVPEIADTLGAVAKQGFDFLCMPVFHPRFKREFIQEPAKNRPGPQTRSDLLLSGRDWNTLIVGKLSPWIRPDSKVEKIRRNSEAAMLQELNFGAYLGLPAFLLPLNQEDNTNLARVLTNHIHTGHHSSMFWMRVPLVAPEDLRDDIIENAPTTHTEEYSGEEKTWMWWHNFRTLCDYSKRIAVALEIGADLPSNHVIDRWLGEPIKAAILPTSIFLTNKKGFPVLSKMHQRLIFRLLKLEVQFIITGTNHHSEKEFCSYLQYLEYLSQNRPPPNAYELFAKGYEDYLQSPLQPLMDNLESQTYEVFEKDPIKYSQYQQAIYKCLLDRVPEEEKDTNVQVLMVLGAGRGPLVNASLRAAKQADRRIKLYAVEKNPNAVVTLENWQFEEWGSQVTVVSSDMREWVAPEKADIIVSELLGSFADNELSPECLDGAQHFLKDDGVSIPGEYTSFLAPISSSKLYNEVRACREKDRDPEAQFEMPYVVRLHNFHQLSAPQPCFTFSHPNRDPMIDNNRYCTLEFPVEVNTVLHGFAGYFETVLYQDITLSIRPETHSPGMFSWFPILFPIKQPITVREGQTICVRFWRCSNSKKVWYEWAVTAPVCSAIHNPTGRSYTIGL
Sequence of PRMT5 (Q9BQA1 whole entry partner): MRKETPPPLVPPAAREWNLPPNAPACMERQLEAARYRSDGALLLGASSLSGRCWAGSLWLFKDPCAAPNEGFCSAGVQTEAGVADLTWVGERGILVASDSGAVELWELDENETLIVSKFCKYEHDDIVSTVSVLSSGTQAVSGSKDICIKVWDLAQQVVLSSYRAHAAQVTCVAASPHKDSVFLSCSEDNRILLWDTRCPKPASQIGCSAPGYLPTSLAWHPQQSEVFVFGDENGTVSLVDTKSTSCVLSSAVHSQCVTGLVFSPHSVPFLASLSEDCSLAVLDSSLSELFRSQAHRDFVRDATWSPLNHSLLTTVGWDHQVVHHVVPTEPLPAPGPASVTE
T2 sequence (P33261 whole entry): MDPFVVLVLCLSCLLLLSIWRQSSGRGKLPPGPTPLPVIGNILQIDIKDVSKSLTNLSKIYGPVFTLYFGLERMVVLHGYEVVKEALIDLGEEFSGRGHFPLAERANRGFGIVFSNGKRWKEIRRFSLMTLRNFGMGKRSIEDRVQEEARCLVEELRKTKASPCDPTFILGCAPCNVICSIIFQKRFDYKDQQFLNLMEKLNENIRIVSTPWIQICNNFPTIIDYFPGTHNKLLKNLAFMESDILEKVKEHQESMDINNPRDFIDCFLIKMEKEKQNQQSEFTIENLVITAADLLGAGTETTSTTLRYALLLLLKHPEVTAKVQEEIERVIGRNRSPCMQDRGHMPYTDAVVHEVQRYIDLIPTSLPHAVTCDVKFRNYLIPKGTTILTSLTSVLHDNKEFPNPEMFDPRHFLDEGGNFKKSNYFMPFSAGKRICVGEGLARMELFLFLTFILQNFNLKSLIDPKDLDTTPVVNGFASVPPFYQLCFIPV

IC50 (CYP450 1A2; human liver microsomes, 1A2, read-out: IC50) [nM]	IC50 (CYP450 2C19; human liver microsomes, 2C19, read-out: IC50) [nM]	SMILES	Day 28 TGI (HCT-116-MTAP^-/- cells; 10 mpk PO QD) [%]	Day 28 TGI (HCT-116-MTAP^-/- cells; 30 mpk PO QD) [%]	IC50 (CYP450 1A2; human, microsomes, pH 7.4) [nM]	EC50 (HCT-116) [nM]	EC50 (HCT-116-MTAP^-/-) [nM]	IC50 (CYP450 2C19; human, microsomes, pH 7.4) [nM]	IC50 (PRMT5) [nM]
–	–	Cn1ncc2c(N)nc3cc(F)c(C(=O)N4CCOC[C@@H]4c4ccc5c(c4)OC(F)(F)O5)cc3c21 [Example I-7]	84	91	> 10000	1160	6.6	> 10000	28.4
–	–	Cn1ncc2c(N)nc3cnc(C(=O)N4CCOC[C@@H]4c4ccc5c(c4)OC(F)(F)O5)cc3c21 [Example I-38]	–	–	–	313	7.4	–	–
> 10000	> 10000	Cn1ncc2c(N)nc3cc(F)c(C(=O)N(Cc4ccc5c(c4)OC(F)(F)O5)C4CC4)cc3c21 [Example I-16]	75	92	–	928	3.8	–	34.6
